Results on 20 compounds are retold here after PubChem BioAssay AID330 (DTP/NCI, 2004).

This assay concerns P388 leukemia ip, CD2F1 mice, survival T/C. Put plainly: NCI In Vivo Anticancer Drug Screen. Data for tumor model P388 Leukemia (intraperitoneal) in CD2F1 (CDF1) mice. The note with it: endpoint: median survival time, higher = longer survival. Summed up: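 Mice carrying the transplanted tumor received test compound or vehicle. Survival was recorded in each group, and the value is the treated-group measurement divided by that of the vehicle-treated control group.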

Setting [1] is: dose: 50.0 mg/kg/injection, schedule: Q01DX009 (ip), vehicle: saline with Tween-80.
[2] abbreviates: dose: 100.0 mg/kg/injection, schedule: Q01DX009 (ip), vehicle: saline with Tween-80.
Setting [3] is: dose: 200.0 mg/kg/injection, schedule: Q01DX009 (ip), vehicle: saline with Tween-80.
Where [4] appears, read: dose: 25.0 mg/kg/injection, schedule: Q01DX009 (ip), vehicle: saline with Tween-80.
[5] abbreviates: dose: 25.0 mg/kg/injection, schedule: Q01DX005 (ip), vehicle: saline with Tween-80.
[6] abbreviates: dose: 50.0 mg/kg/injection, schedule: Q01DX005 (ip), vehicle: saline with Tween-80.
The mark [7] stands for this setting: dose: 100.0 mg/kg/injection, schedule: Q01DX005 (ip), vehicle: saline with Tween-80.
Where [8] appears, read: dose: 200.0 mg/kg/injection, schedule: Q01DX005 (ip), vehicle: saline with Tween-80.
Where [9] appears, read: dose: 400.0 mg/kg/injection, schedule: Q01DX009 (ip), vehicle: saline with Tween-80.
The mark [10] stands for this setting: dose: 50.0 mg/kg/injection, schedule: Q01DX005 (ip), vehicle: saline.

Several values for one entry are separate records, joined by “and”; a condition that tells them apart may be missing. Identical values can stand only once. Inconclusive results and toxic doses are left out.

With `OCCN(CCO)CCCCCCN(CCO)CCO`, the T/C is, setting by setting: (dose: 25.0 mg/kg/injection, schedule: Q01DX009 (ip), vehicle: saline) 98 % of control; (dose: 50.0 mg/kg/injection, schedule: Q01DX009 (ip), vehicle: saline) 104 % of control; (dose: 100.0 mg/kg/injection, schedule: Q01DX009 (ip), vehicle: saline) 107 % of control; (dose: 200.0 mg/kg/injection, schedule: Q01DX009 (ip), vehicle: saline) 113 % of control.
As to `Cc1ccc(NCCN2CCCCC2)c2c(=O)c3ccc(Cl)cc3sc12`, the T/C reads like this: (dose: 60.0 mg/kg/injection, schedule: Q01DX005 (ip), vehicle: Klucel (hydroxypropylcellulose) (HPC)) 94 % of control; (dose: 120.0 mg/kg/injection, schedule: Q01DX005 (ip), vehicle: Klucel (hydroxypropylcellulose) (HPC)) 86 % of control; (dose: 240.0 mg/kg/injection, schedule: Q01DX005 (ip), vehicle: Klucel (hydroxypropylcellulose) (HPC)) 97 % of control.
For the compound `Cc1ccc(S(=O)c2cc(C)cc(C(C)(C)C)c2O)cc1` (stereo not drawn), the T/C was 103 % of control under setting [1], 105 % of control under setting [2] and 96 % of control under setting [3].
Consider `Cc1cc(N=C2C=CC(=[N+](C)C)C=C2)c(N)cc1N`, for which the T/C by setting is: under setting [4], 107 % of control; under setting [1], 107 % of control.
`C[S+](C)CCCNC(=O)c1csc(-c2cscn2)n1`: the T/C (dose: 6.25 mg/kg/injection, schedule: Q01DX005 (ip), vehicle: water) was 101 % of control; the T/C (dose: 12.5 mg/kg/injection, schedule: Q01DX005 (ip), vehicle: water) was 96 % of control; the T/C (dose: 25.0 mg/kg/injection, schedule: Q01DX005 (ip), vehicle: water) was 101 % of control.
Turning to `CC(=O)OC[C@@]1(C)[C@@H]2CC[C@]3(C)[C@H](C(=O)C=C4[C@@H]5CC(C)(C)CC[C@]5(C(=O)O)CC[C@]43C)[C@@]2(C)CC[C@@H]1OC(C)=O`, the T/C is, setting by setting: under setting [5], 108 % of control; under setting [6], 87 % of control and 95 % of control; under setting [7], 93 % of control.
For the compound `NC(N)=N/N=C/c1ccc[nH]1`, the T/C reads like this: under setting [6], 104 % of control; under setting [7], 106 % of control; under setting [8], 104 % of control.
With `COc1cc(N(CCCl)CCCl)ccc1/C=N\NC(=O)c1cccnc1`, the T/C was 95 % of control (dose: 25.0 mg/kg/injection, schedule: Q01DX007 (ip), vehicle: Klucel (hydroxypropylcellulose) (HPC)); 108 % of control (dose: 50.0 mg/kg/injection, schedule: Q01DX007 (ip), vehicle: Klucel (hydroxypropylcellulose) (HPC)); 100 % of control (dose: 100.0 mg/kg/injection, schedule: Q01DX007 (ip), vehicle: Klucel (hydroxypropylcellulose) (HPC)); 101 % of control (dose: 200.0 mg/kg/injection, schedule: Q01DX007 (ip), vehicle: Klucel (hydroxypropylcellulose) (HPC)).
Take `C1=NCCN=Cc2ccccc2NCCNc2ccccc21`: the T/C is 93 % of control (dose: 100.0 mg/kg/injection, schedule: Q04DX003 (ip), vehicle: saline); 91 % of control (dose: 200.0 mg/kg/injection, schedule: Q04DX003 (ip), vehicle: saline); 103 % of control (dose: 400.0 mg/kg/injection, schedule: Q04DX003 (ip), vehicle: saline).
For `CSC(/C=C1\C=Cc2ccccc2N1C)=N\S(=O)(=O)c1ccc(N)cc1`, the T/C is 107 % of control (dose: 25.0 mg/kg/injection, schedule: Q04DX002 (ip), vehicle: saline with Tween-80); 100 % of control (dose: 50.0 mg/kg/injection, schedule: Q04DX002 (ip), vehicle: saline with Tween-80); 102 % of control (dose: 100.0 mg/kg/injection, schedule: Q04DX002 (ip), vehicle: saline with Tween-80).
As to `S=C1N=C2c3ccccc3C2C(=S)S1` (stereo not drawn), the T/C under setting [4] is 93 % of control; the T/C under setting [1] is 101 % of control and 105 % of control; the T/C under setting [2] was 102 % of control and 120 % of control and 91 % of control; the T/C under setting [3] was 100 % of control and 104 % of control and 87 % of control.
Consider `COc1cc2c(cc1O)CCCC=C2C1CCCCc2cc(O)c(OC)cc21` (stereo not drawn), for which the T/C by setting is: under setting [2], 104 % of control; under setting [3], 94 % of control; under setting [9], 91 % of control.
As for `Cn1c(=O)c2nncnc2n(C)c1=O`, the T/C under setting [5] was 96 % of control, the T/C under setting [6] is 93 % of control, the T/C under setting [7] is 93 % of control and the T/C under setting [8] is 94 % of control.
Regarding `OCC1OC(Oc2ncccn2)C(O)C1O` (stereo not drawn), the T/C under setting [10] was 97 % of control; the T/C (dose: 50.0 mg/kg/injection, schedule: Q01DX005 (ip), vehicle: suspension in saline) was 99 % of control; the T/C (dose: 100.0 mg/kg/injection, schedule: Q01DX005 (ip), vehicle: saline) was 99 % of control; the T/C (dose: 100.0 mg/kg/injection, schedule: Q01DX005 (ip), vehicle: suspension in saline) was 99 % of control; the T/C (dose: 200.0 mg/kg/injection, schedule: Q01DX005 (ip), vehicle: saline) is 101 % of control; the T/C (dose: 200.0 mg/kg/injection, schedule: Q01DX005 (ip), vehicle: suspension in saline) is 98 % of control. Further, the T/C reads like this: (dose: 400.0 mg/kg/injection, schedule: Q01DX005 (ip), vehicle: saline) 104 % of control; (dose: 400.0 mg/kg/injection, schedule: Q01DX005 (ip), vehicle: suspension in saline) 99 % of control.
Turning to `CC1(C(=O)O)NCCc2cc(O)c(O)cc21` (stereo not drawn), the T/C (dose: 50.0 mg/kg/injection, schedule: Q01DX005 (ip), vehicle: Klucel (hydroxypropylcellulose) (HPC)) was 104 % of control; the T/C (dose: 100.0 mg/kg/injection, schedule: Q01DX005 (ip), vehicle: Klucel (hydroxypropylcellulose) (HPC)) is 104 % of control; the T/C (dose: 200.0 mg/kg/injection, schedule: Q01DX005 (ip), vehicle: Klucel (hydroxypropylcellulose) (HPC)) is 103 % of control.
Turning to `C(=NCCSSCCN=Cc1ccccc1)c1ccccc1`, the T/C reads like this: (dose: 60.0 mg/kg/injection, schedule: Q01DX005 (ip), vehicle: saline with Tween-80) 93 % of control; (dose: 120.0 mg/kg/injection, schedule: Q01DX005 (ip), vehicle: saline with Tween-80) 93 % of control; (dose: 240.0 mg/kg/injection, schedule: Q01DX005 (ip), vehicle: saline with Tween-80) 103 % of control.
Take `CC(=O)OCN1C(=O)C2C3C=CC(C2C1=O)C1C2C(=O)N(COC(C)=O)C(=O)C2C31` (stereo not drawn): the T/C under setting [4] is 117 % of control, the T/C under setting [1] is 115 % of control, the T/C under setting [3] was 180 % of control and the T/C under setting [9] was 208 % of control.
On to `CC1/C=C/C=C/CC/C=C/C=C/C=C/C=C/C(OC2OC(C)C(O)C(N)C2O)CC2OC(CC(O)C(O)CCC(O)CC(O)CC(O)CC(=O)OC(C)C(C)C1O)CC(O)C2C(=O)O` (stereo not drawn), for which the T/C (dose: 6.25 mg/kg/injection, schedule: Q01DX005 (ip), vehicle: saline with Tween-80) is 95 % of control; the T/C (dose: 9.5 mg/kg/injection, schedule: Q01DX009 (ip), vehicle: saline sonified) was 100 % of control; the T/C (dose: 12.5 mg/kg/injection, schedule: Q01DX005 (ip), vehicle: saline with Tween-80) was 109 % of control; the T/C (dose: 19.0 mg/kg/injection, schedule: Q01DX009 (ip), vehicle: saline sonified) was 95 % of control; the T/C under setting [5] was 104 % of control; the T/C (dose: 38.0 mg/kg/injection, schedule: Q01DX009 (ip), vehicle: saline sonified) was 100 % of control. Also, the T/C under setting [6] is 95 % of control.
With `Oc1cc(O)c(-c2c(O)cc(O)cc2O)c(O)c1` (tested in a mixture with another compound), the T/C reads like this: (dose: 1.56 mg/kg/injection, schedule: Q01DX005 (ip), vehicle: saline) 97 % of control; (dose: 3.12 mg/kg/injection, schedule: Q01DX005 (ip), vehicle: saline) 106 % of control; (dose: 6.25 mg/kg/injection, schedule: Q01DX005 (ip), vehicle: saline) 111 % of control; (dose: 12.5 mg/kg/injection, schedule: Q01DX005 (ip), vehicle: saline) 101 % of control; (dose: 25.0 mg/kg/injection, schedule: Q01DX005 (ip), vehicle: saline) 96 % of control; under setting [10], 108 % of control.
Consider `Cc1cccc(NC(=O)CCc2ccc(N3C(N)=NC(N)=NC3(C)C)cc2)c1`, for which the T/C runs as follows: under setting [1], 118 % of control; (dose: 50.0 mg/kg/injection, schedule: Q04DX003 (ip), vehicle: saline sonified) 118 % of control; (dose: 100.0 mg/kg/injection, schedule: Q04DX003 (ip), vehicle: saline sonified) 113 % of control; (dose: 132.0 mg/kg/injection, schedule: Q01DX009 (ip), vehicle: saline with Tween-80) 118 % of control; (dose: 200.0 mg/kg/injection, schedule: Q04DX003 (ip), vehicle: saline sonified) 118 % of control.
